In article PMC11094368, “Modulating mycobacterial envelope integrity for antibiotic synergy with benzothiazoles” (Life Science Alliance, 2024) one finds IC50 and MIC90 data, which are given here for two molecules.

What all share (assay): microbe, parasite or virus in culture
One assay concerns T1, Bacillus subtilis 168.
T1 construct: 168
Set-up: species or system E. coli, B. subtilis, K. pneumoniae, A. baumannii; bacterial growth inhibition in LB, twofold dilutions, OD600 tracking. The settings on record: Bacillus subtilis, 168, read-out: MIC50.

In a further assay the test system is T2, Escherichia coli K12.
T2 construct: K12
Set-up: species or system E. coli, B. subtilis, K. pneumoniae, A. baumannii; bacterial growth inhibition in LB, twofold dilutions, OD600 tracking. The settings on record: Escherichia coli, K12, read-out: MIC50.

For assay [1], the system named is T3, Klebsiella pneumoniae LMG20218.
T3 construct: LMG20218
The arrangement: species or system E. coli, B. subtilis, K. pneumoniae, A. baumannii; bacterial growth inhibition in LB, twofold dilutions, OD600 tracking. To be noted: Klebsiella pneumoniae, LMG20218, read-out: MIC50.

Assay [2] has as its system T4, Acinetobacter baumannii 1757.
T4 construct: 1757
The arrangement: species or system E. coli, B. subtilis, K. pneumoniae, A. baumannii; bacterial growth inhibition in LB, twofold dilutions, OD600 tracking. To be noted: Acinetobacter baumannii, 1757, read-out: MIC50.

The subject of assay [3] is T5, Acinetobacter baumannii LMG01041.
T5 construct: LMG01041
Set-up: species or system E. coli, B. subtilis, K. pneumoniae, A. baumannii; bacterial growth inhibition in LB, twofold dilutions, OD600 tracking. The settings on record: Acinetobacter baumannii, LMG01041, read-out: MIC50.

The subject of assay [4] is T6, Mycobacterium abscessus RIVM.
T6 construct: RIVM
Set-up: resazurin microtiter plate assay (REMA), growth inhibition in 7H9 ADS glycerol tyloxapol. To be noted: Mycobacteroides abscessus, 48 h, read-out: MIC50.

Assay [5] deals with T7, Mycobacterium abscessus 144C.
T7 construct: 144C
Set-up: resazurin microtiter plate assay (REMA), growth inhibition in 7H9 ADS glycerol tyloxapol. To be noted: Mycobacteroides abscessus, 144C, 48 h, read-out: MIC50.

The next assay has as its system T8, M. marinum.
T8 construct: M^USA (wild type)
The arrangement: Resazurin microtiter plate assay (REMA), fluorescence; MIC90 growth inhibition in HdB medium with Tween-80, 30 °C. To be noted: Mycobacterium marinum, 96 h; MIC90, HdB medium with Tween-80. As to the method:
The resazurin microtiter plate assay (REMA) was used to determine minimal inhibitory concentrations (MIC) of the compound toward mycobacterial species ([Palomino et al, 2002]). Selected compounds or antibiotics were diluted in the bacterial growth medium as twofold serial dilutions in a 96-well plate. Bacteria were routinely grown until the mid-logarithmic phase, harvested by centrifugation (3,000g, 10 min), washed in PBS supplemented with 0.02% tyloxapol, resuspended in the growth medium, and added to the well plate containing compound dilutions, to achieve the final OD600 of 0.001 per well. […] When the color conversion of the dye was observed, the fluorescence was measured using a BioTek plate reader (Synergy H1), bottom reading mode, and excitation 560 nm/emission 590 nm. The MIC of compounds toward E. coli, Bacillus subtilis, K. pneumoniae, and A. baumannii was determined by tracking changes in the OD600. […] Plates were sealed and incubated at 37°C with 3 mm continuous linear shaking in a BioTek plate reader (Synergy H1), and the bacterial growth was tracked by measuring the OD600 every 15 min. […] Thus, we evaluated compounds from the benzothiazole library for their in vitro activity using the HdB medium with Tween-80 by REMA (Table S6).

For assay [6], the system named is T9, Mycobacterium smegmatis MC^2-155.
T9 construct: MC2-155
Set-up: resazurin microtiter plate assay (REMA), growth inhibition in 7H9 ADS glycerol tyloxapol. The settings on record: Mycolicibacterium smegmatis, 24 h, read-out: MIC50.

The structures appear in SMILES notation.

For the molecule `CCOc1ccc2nc(N(Cc3ccccc3)C(C)=O)sc2c1` [BT-08, N-Benzyl-N-(6-ethoxybenzo[d]thiazol-2-yl)acetamide], the IC50 (with Bacillus subtilis 168; in the assay on Escherichia coli K12; in assay [1]; in [2]; in assay [3]; in [4]) was greater than 40 µM in each case. Moreover, the IC50 in [5] is greater than 40 µM.
Consider `CCOc1ccc2nc(N(Cc3ccccc3OC)C(C)=O)sc2c1` [BT-37], for which the MIC90 with M. marinum was 0.3 µM. In addition, the IC50 (in the assay with Bacillus subtilis 168; in the assay on Escherichia coli K12; in assay [1]; in [2]; in assay [3]; in [6]) was greater than 40 µM in each case. Also, the IC50 in [4] and in [5] was greater than 40 µM in each case.
